In ChEMBL document CHEMBL5506024, “Multitarget μ-Opioid Receptor Agonists─Neuropeptide FF Receptor Antagonists Induce Potent Antinociception with Reduced Adverse Side Effects” (J Med Chem, 2024):
pKi: −log10 of the molar value. Active and inactive are the calls of the source. The rule behind the calls is not given here.

Experiments:
[1] = Induction of motor coordination impairment in C57BL/6 mouse at 20 mg/kg, sc by rotarod assay; assay type: toxicity, organism-based; details: in vivo
[2] = target: T1, Neuropeptide FF receptor 1 (Homo sapiens, UniProt Q9GZQ6); assay: Displacement of [125I]-1DMeNPFF from human NPFFR1 expressed in CHO cell membrane at 0.5 uM incubated for 1 hr by Topcount counting method relative to control; assay type: cell membranes
T1 sequence (Q9GZQ6 whole entry): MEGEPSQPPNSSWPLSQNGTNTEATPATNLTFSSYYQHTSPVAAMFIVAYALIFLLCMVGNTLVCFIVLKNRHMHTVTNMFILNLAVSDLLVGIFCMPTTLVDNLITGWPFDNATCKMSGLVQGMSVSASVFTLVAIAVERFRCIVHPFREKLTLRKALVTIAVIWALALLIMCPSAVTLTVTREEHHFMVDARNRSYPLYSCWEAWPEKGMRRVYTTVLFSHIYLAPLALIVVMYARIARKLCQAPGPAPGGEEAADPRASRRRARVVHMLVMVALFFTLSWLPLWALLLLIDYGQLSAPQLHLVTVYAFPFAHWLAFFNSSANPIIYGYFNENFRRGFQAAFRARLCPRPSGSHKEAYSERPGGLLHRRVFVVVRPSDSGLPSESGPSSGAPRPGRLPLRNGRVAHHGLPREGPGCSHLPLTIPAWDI

[3] = target: T2, Prolactin-releasing peptide receptor (Homo sapiens) (UniProt P49683); assay: Antagonist activity at human GPR10 expressed in CHO cells assessed as intracellular calcium release upto 10 uM by Fluo-4 AM dye based calcium mobilization assay; assay type: functional, cell-based
T2 sequence (whole entry): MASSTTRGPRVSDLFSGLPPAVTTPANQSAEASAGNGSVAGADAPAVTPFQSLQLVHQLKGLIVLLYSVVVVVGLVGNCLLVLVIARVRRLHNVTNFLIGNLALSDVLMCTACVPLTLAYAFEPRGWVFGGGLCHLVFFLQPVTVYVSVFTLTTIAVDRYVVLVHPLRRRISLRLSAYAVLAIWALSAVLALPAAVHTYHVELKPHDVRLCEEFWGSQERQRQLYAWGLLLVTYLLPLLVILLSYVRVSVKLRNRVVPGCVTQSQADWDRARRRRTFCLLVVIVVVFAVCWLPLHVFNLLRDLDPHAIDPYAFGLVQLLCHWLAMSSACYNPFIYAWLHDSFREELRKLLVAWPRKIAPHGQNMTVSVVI

[4] = target: T3, Mu-type opioid receptor (Homo sapiens, UniProt P35372); assay: Agonist activity at human MOP expressed in HEK293 cells coexpressing GloSensor-20F assessed as inhibition of forskolin-induced cAMP accumulation relative to control; assay type: functional, cell-based; details: filed as agonist
T3 sequence (P35372 whole entry): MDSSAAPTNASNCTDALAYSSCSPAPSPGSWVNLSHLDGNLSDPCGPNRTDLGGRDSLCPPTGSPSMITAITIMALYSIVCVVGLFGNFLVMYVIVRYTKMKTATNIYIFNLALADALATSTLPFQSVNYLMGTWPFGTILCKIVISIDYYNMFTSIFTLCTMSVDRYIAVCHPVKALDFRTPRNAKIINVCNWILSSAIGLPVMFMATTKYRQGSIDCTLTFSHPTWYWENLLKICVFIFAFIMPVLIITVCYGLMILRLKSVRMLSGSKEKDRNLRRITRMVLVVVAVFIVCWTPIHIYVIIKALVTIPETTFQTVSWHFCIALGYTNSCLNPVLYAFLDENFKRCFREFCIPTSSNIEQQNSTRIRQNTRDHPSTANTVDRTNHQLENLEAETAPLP

[5] = target: T4, Neuropeptide FF receptor 2 (Homo sapiens, UniProt Q9Y5X5); assay: Displacement of [125I]-1DMeNPFF from human NPFFR2 expressed in CHO cell membrane at 0.05 uM incubated for 1 hr by Topcount counting method relative to control; assay type: cell membranes; details: filed as antagonist
T4 sequence (Q9Y5X5 whole entry): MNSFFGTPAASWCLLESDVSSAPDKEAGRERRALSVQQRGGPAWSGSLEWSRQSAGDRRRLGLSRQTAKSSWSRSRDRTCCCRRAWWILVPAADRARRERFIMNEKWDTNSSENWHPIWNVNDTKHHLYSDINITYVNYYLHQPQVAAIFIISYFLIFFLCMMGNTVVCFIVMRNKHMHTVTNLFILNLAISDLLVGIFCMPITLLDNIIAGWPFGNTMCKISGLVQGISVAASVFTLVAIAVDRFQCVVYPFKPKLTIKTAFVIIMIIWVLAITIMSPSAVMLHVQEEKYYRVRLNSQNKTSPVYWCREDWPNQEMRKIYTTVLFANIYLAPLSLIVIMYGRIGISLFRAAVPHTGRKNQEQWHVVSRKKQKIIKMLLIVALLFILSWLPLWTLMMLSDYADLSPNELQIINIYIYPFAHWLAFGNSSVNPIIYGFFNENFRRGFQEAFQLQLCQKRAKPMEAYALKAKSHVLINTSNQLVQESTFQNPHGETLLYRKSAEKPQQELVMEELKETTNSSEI

[6] = target: Nociceptin receptor (Homo sapiens) (UniProt P41146); assay: Partial agonist activity at human NOR expressed in HEK293 cells assessed as forskolin-induced cAMP accumulation in presence of IBMX; assay type: functional, cell-based; details: filed as partial agonist
Chain of Nociceptin receptor (Homo sapiens) (P41146 whole entry): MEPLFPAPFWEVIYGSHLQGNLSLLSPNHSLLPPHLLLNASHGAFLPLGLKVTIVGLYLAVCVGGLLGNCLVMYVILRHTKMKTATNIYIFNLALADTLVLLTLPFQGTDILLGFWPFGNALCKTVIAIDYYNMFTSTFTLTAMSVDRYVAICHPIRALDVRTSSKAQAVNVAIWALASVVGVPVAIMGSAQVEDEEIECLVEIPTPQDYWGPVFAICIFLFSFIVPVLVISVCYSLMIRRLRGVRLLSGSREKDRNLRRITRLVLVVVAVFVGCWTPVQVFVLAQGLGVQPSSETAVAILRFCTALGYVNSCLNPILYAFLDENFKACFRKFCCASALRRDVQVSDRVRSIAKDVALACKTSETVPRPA

[7] = tested on: Mus musculus; assay: Antinociceptive activity in mouse at 2.5 to 10 mg/kg, sc measured after 6 hrs by tail immersion test; assay type: functional, organism-based; details: dose 2.5-10 mg/kg
[8] = target: KiSS-1 receptor (Homo sapiens) (UniProt Q969F8); assay: Agonist activity at human GPR54 expressed in CHO cells assessed as intracellular calcium release upto 10 uM by Fluo-4 AM dye based calcium mobilization assay; assay type: functional, cell-based
Chain of KiSS-1 receptor (Homo sapiens) (Q969F8 whole entry): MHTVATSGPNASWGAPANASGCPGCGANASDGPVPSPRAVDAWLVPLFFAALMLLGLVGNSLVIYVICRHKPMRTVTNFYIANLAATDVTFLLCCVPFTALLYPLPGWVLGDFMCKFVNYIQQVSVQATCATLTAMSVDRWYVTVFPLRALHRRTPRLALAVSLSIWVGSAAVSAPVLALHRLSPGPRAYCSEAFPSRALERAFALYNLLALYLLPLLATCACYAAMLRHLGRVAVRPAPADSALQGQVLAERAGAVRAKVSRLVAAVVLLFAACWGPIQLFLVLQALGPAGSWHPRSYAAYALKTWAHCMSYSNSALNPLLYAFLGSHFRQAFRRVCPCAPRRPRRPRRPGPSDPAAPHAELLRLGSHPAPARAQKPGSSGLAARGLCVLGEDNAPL

[9] = target: T1, Neuropeptide FF receptor 1; assay: Antagonist activity at human NPFFR1 expressed in CHO cell membrane assessed as inhibition of NPVF induced cAMP response at 5 uM incubated for 1 hr by Topcount counting method relative to control; assay type: functional, cell membranes; set-up: scale not given: the % may be the effect or the level left
[10] = target: T3, Mu-type opioid receptor; assay: Agonist activity at human Rluc8-tagged MOP expressed in HEK293 cells coexpressing eYFP-tagged beta-arrestin-2 assessed as beta-arrestin-2 recruitment incubated for 5 mins by luminometer analysis; assay type: functional, cell-based; details: hek293
[11] = Drug concentration in mouse plasma at 10 mg/kg, sc measured after 2 hrs by LC-MS/MS analysis; assay type: ADME, organism-based
[12] = target: KiSS-1 receptor (Homo sapiens) (UniProt Q969F8); assay: Antagonist activity at human GPR54 expressed in CHO cells assessed as intracellular calcium release upto 10 uM by Fluo-4 AM dye based calcium mobilization assay; assay type: functional, cell-based
[13] = Half life in mouse at 10 mg/kg, sc measured upto 24 hrs by LC-MS/MS analysis; assay type: ADME, organism-based; details: in vivo
[14] = target: Delta-type opioid receptor (Homo sapiens) (UniProt P41143); assay: Agonist activity at human DOP expressed in HEK293 cells assessed as inhibition of forskolin-induced cAMP accumulation; assay type: functional, cell-based; details: filed as agonist
Chain of Delta-type opioid receptor (Homo sapiens) (P41143 whole entry): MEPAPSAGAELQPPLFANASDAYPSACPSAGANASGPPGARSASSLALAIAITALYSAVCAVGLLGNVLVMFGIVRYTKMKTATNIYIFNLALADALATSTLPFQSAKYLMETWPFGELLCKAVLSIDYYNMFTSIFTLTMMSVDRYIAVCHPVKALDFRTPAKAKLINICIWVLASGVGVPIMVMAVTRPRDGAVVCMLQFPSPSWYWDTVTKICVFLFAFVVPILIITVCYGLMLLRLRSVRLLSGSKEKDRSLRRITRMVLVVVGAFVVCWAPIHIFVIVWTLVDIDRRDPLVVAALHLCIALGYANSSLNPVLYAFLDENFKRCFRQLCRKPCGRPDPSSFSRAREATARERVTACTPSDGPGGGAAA

[15] = target: T4, Neuropeptide FF receptor 2; assay: Antagonist activity at human NPFFR2 expressed in CHO cell membrane assessed as inhibition of NPVF induced cAMP response at 5 uM incubated for 1 hr by Topcount counting method relative to control; assay type: functional, cell membranes; set-up: scale not given: the % may be the effect or the level left; details: filed as antagonist
[16] = target: T5, Pyroglutamylated RF-amide peptide receptor (Homo sapiens) (UniProt Q96P65); assay: Antagonist activity at human GPR103 expressed in CHO cells assessed as intracellular calcium release upto 10 uM by Fluo-4 AM dye based calcium mobilization assay; assay type: functional, cell-based
T5 sequence (whole entry): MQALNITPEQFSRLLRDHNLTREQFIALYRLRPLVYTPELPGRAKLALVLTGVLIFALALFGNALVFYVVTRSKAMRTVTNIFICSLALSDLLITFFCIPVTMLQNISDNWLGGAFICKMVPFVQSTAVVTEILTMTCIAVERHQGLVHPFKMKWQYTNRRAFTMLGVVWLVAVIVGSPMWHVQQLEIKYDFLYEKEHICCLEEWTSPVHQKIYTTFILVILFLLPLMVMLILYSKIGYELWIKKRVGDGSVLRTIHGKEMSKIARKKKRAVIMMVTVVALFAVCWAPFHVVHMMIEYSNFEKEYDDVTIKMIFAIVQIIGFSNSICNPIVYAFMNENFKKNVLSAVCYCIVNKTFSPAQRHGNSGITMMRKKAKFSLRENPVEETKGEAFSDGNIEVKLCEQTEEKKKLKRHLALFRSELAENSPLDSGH

[17] = target: T5, Pyroglutamylated RF-amide peptide receptor (Homo sapiens); assay: Agonist activity at human GPR103 expressed in CHO cells assessed as intracellular calcium release upto 10 uM by Fluo-4 AM dye based calcium mobilization assay; assay type: functional, cell-based
[18] = target: Kappa-type opioid receptor (Homo sapiens, UniProt P41145); assay: Partial agonist activity at human KOR expressed in HEK293 cells assessed as forskolin-induced cAMP accumulation in presence of IBMX; assay type: functional, cell-based; details: filed as partial agonist
Chain of Kappa-type opioid receptor (P41145 whole entry): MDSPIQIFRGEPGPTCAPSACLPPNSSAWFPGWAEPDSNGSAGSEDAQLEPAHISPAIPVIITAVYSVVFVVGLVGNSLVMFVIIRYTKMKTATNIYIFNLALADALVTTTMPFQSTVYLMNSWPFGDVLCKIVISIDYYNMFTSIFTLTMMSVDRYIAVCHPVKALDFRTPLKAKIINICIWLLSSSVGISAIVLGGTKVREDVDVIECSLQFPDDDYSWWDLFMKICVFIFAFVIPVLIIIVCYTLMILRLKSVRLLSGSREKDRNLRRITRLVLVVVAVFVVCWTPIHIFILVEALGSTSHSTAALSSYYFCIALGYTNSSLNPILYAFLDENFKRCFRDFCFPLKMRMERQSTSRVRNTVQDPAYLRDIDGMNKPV

[19] = target: T2, Prolactin-releasing peptide receptor (Homo sapiens); assay: Agonist activity at human GPR10 expressed in CHO cells assessed as intracellular calcium release upto 10 uM by Fluo-4 AM dye based calcium mobilization assay; assay type: functional, cell-based
[20] = target: T1, Neuropeptide FF receptor 1; assay: Displacement of [125I]-1DMeNPFF from human NPFFR1 expressed in CHO cell membrane incubated for 1 hr by Topcount counting method; assay type: cell membranes
[21] = Cmax in mouse at 10 mg/kg, sc measured upto 24 hrs by LC-MS/MS analysis; assay type: ADME, organism-based; details: in vivo
[22] = target: T1, Neuropeptide FF receptor 1; assay: Antagonist potency at human NPFFR1 expressed in CHO cell membrane assessed as inhibition of NPVF induced cAMP response incubated for 1 hr by Topcount counting method; assay type: functional, cell membranes; details: read-out: pA2 (converted)
[23] = target: T4, Neuropeptide FF receptor 2; assay: Displacement of [125I]-1DMeNPFF from human NPFFR2 expressed in CHO cell membrane incubated for 1 hr by Topcount counting method; assay type: cell membranes
[24] = target: T4, Neuropeptide FF receptor 2; assay: Antagonist potency at human NPFFR2 expressed in CHO cell membrane assessed as inhibition of NPVF induced cAMP response incubated for 1 hr by Topcount counting method; assay type: functional, cell membranes; details: read-out: pA2 (converted)
[25] = Tmax in mouse at 10 mg/kg, sc measured upto 24 hrs by LC-MS/MS analysis; assay type: ADME, organism-based; details: in vivo

## CN(C)CCC=C1c2ccccc2CCc2ccccc21 [AMITRIPTYLINE]
[1]
  Activity: Toxic

## Cc1cc(O)cc(C)c1C[C@H](N)C(=O)N(C)[C@H](C)C(=O)N[C@H]1Cc2c(ccc3ccccc23)CN(CC(=O)N[C@@H](CCCN2CCC(Cc3ccccc3)CC2)C(=O)N[C@@H](Cc2ccccc2)C(N)=O)C1=O
[2]
  Activity: 22%
[3]
  Activity: inactive
[4]
  Emax: 73%
[5]
  Activity: 51%
[6]
  Activity: Active
[7]
  Activity: Active
[8]
  Activity: inactive
[9]
  Activity: 3%
[10]
  EC50: Not Active
[11]
  concentration at 2 h: 474 nM
[12]
  Activity: inactive
[13]
  half-life: 3.88 h
[14]
  Activity: Active
[15]
  Activity: 80%
[16]
  Activity: inactive
[17]
  Activity: inactive
[18]
  Activity: Active
[19]
  Activity: inactive
[20]
  pKi: 5.93
[21]
  Cmax: 446 nM
[22]
  Kb: 5890 nM
[23]
  pKi: 7.27
[24]
  Kb: 102 nM
[25]
  Tmax: 1.83 h
